Experimental data from ChEMBL document CHEMBL1177848, “Synthesis of novel 6,6a,7,8-tetrahydro-5H-naphtho[1,2-e]pyrimido[4,5-b][1,4]diazepines under microwave irradiation as potential anti-tumor agents” (2010).
Calls of active or inactive are those of the source.

Key:
Assay type in all cases: functional, cell-based
SF-295 = experiment: Growth inhibition of human SF295 cells at 1 uM after 48 hrs by sulforhodamine B assay
OVCAR-4 = experiment: Growth inhibition of human OVCAR4 cells at 1 uM after 48 hrs by sulforhodamine B assay
RXF 393 = experiment: Growth inhibition of human RXF393 cells at 1 uM after 48 hrs by sulforhodamine B assay
EKVX = experiment: Growth inhibition of human EKVX cells at 1 uM after 48 hrs by sulforhodamine B assay
HOP-92 = experiment: Growth inhibition of human HOP92 cells at 1 uM after 48 hrs by sulforhodamine B assay
NCI-H460 = experiment: Growth inhibition of human NCI-H460 cells at 1 uM after 48 hrs by sulforhodamine B assay
HT-29 = experiment: Growth inhibition of human HT-29 cells at 1 uM after 48 hrs by sulforhodamine B assay
A498 = experiment: Growth inhibition of human A498 cells at 1 uM after 48 hrs by sulforhodamine B assay
IGROV-1 = experiment: Growth inhibition of human IGROV1 cells at 1 uM after 48 hrs by sulforhodamine B assay
COLO 205 = experiment: Growth inhibition of human COLO205 cells at 1 uM after 48 hrs by sulforhodamine B assay
MOLT-4 = experiment: Growth inhibition of human MOLT4 cells at 1 uM after 48 hrs by sulforhodamine B assay
NCI-H322M = experiment: Growth inhibition of human […] cells at 1 uM after 48 hrs by sulforhodamine B assay
MCF7 = experiment: Growth inhibition of human MCF7 cells at 1 uM after 48 hrs by sulforhodamine B assay
MDA-MB-231 = experiment: Growth inhibition of human MDA-MB-231 cells at 1 uM after 48 hrs by sulforhodamine B assay
HOP-62 = experiment: Growth inhibition of human HOP62 cells at 1 uM after 48 hrs by sulforhodamine B assay
RPMI-8226 = experiment: Growth inhibition of human RPMI8226 cells at 1 uM after 48 hrs by sulforhodamine B assay
LOX IMVI = experiment: Growth inhibition of human LOXIMVI cells at 1 uM after 48 hrs by sulforhodamine B assay
UO-31 = experiment: Growth inhibition of human UO31 cells at 1 uM after 48 hrs by sulforhodamine B assay
TK-10 = experiment: Growth inhibition of human TK10 cells at 1 uM after 48 hrs by sulforhodamine B assay
786-0 = experiment: Growth inhibition of human 786-0 cells at 1 uM after 48 hrs by sulforhodamine B assay
HCC 2998 = experiment: Growth inhibition of human HCC2998 cells at 1 uM after 48 hrs by sulforhodamine B assay
K562 = experiment: Growth inhibition of human K562 cells at 1 uM after 48 hrs by sulforhodamine B assay
NCI-H522 = experiment: Growth inhibition of human NCI-H522 cells at 1 uM after 48 hrs by sulforhodamine B assay
KM12 = experiment: Growth inhibition of human KM12 cells at 1 uM after 48 hrs by sulforhodamine B assay
DU-145 = experiment: Growth inhibition of human DU145 cells at 1 uM after 48 hrs by sulforhodamine B assay
SF-539 = experiment: Growth inhibition of human SF539 cells at 1 uM after 48 hrs by sulforhodamine B assay
NCI-H226 = experiment: Growth inhibition of human NCI-H226 cells at 1 uM after 48 hrs by sulforhodamine B assay
SF530 = experiment: Growth inhibition of human SF530 cells at 1 uM after 48 hrs by sulforhodamine B assay
NCI-H23 = experiment: Growth inhibition of human NCI-H23 cells at 1 uM after 48 hrs by sulforhodamine B assay
HCT-15 = experiment: Growth inhibition of human HCT15 cells at 1 uM after 48 hrs by sulforhodamine B assay
T47D = experiment: Growth inhibition of human T47D cells at 1 uM after 48 hrs by sulforhodamine B assay
SK-MEL-5 = experiment: Growth inhibition of human SK-MEL-5 cells at 1 uM after 48 hrs by sulforhodamine B assay
UACC-62 = experiment: Growth inhibition of human UACC62 cells at 1 uM after 48 hrs by sulforhodamine B assay
SN12C = experiment: Growth inhibition of human SN12C cells at 1 uM after 48 hrs by sulforhodamine B assay
CCRF-CEM = experiment: Growth inhibition of human CCRF-CEM cells at 1 uM after 48 hrs by sulforhodamine B assay
HL-60 = experiment: Growth inhibition of human HL-60(TB) cells at 1 uM after 48 hrs by sulforhodamine B assay
SNB-75 = experiment: Growth inhibition of human SNB75 cells at 1 uM after 48 hrs by sulforhodamine B assay
UACC-257 = experiment: Growth inhibition of human UACC257 cells at 1 uM after 48 hrs by sulforhodamine B assay
MDA-MB-435 = experiment: Growth inhibition of human MDA-MB-435 cells at 1 uM after 48 hrs by sulforhodamine B assay
SF-268 = experiment: Growth inhibition of human SF268 cells at 1 uM after 48 hrs by sulforhodamine B assay
SK-MEL-2 = experiment: Growth inhibition of human SK-MEL-2 cells at 1 uM after 48 hrs by sulforhodamine B assay
SK-MEL-28 = experiment: Growth inhibition of human SK-MEL-28 cells at 1 uM after 48 hrs by sulforhodamine B assay
M14 = experiment: Growth inhibition of human M14 cells at 1 uM after 48 hrs by sulforhodamine B assay
BT-549 = experiment: Growth inhibition of human BT549 cells at 1 uM after 48 hrs by sulforhodamine B assay
SR = experiment: Growth inhibition of human SR cells at 1 uM after 48 hrs by sulforhodamine B assay
Hs-578T = experiment: Growth inhibition of human Hs 578T cells at 1 uM after 48 hrs by sulforhodamine B assay
HCT-116 = experiment: Growth inhibition of human HCT116 cells at 1 uM after 48 hrs by sulforhodamine B assay
MDA-MB-468 = experiment: Growth inhibition of human MDA-MB-468 cells at 1 uM after 48 hrs by sulforhodamine B assay
CAKI-1 = experiment: Growth inhibition of human Caki1 cells at 1 uM after 48 hrs by sulforhodamine B assay
SW-620 = experiment: Growth inhibition of human SW620 cells at 1 uM after 48 hrs by sulforhodamine B assay
OVCAR-3 = experiment: Growth inhibition of human OVCAR-3 cells at 1 uM after 48 hrs by sulforhodamine B assay
Malme-3M = experiment: Growth inhibition of human MALME-3M cells at 1 uM after 48 hrs by sulforhodamine B assay
NCI/ADR-RES = experiment: Growth inhibition of human NCI/ADR-RES cells at 1 uM after 48 hrs by sulforhodamine B assay
U-251 = experiment: Growth inhibition of human U251 cells at 1 uM after 48 hrs by sulforhodamine B assay
A549 = experiment: Growth inhibition of human A549 cells at 1 uM after 48 hrs by sulforhodamine B assay
OVCAR-8 = experiment: Growth inhibition of human OVCAR8 cells at 1 uM after 48 hrs by sulforhodamine B assay
ACHN = experiment: Growth inhibition of human ACHN cells at 1 uM after 48 hrs by sulforhodamine B assay
PC-3 = experiment: Growth inhibition of human PC3 cells at 1 uM after 48 hrs by sulforhodamine B assay

Measured: growth inhibition (GI)

Nc1ncnc2c1N=C1c3ccccc3CCC1C(c1ccccc1)N2 (stereo unspecified)
active: all assays above

Nc1ncnc2c1N=C1c3ccccc3CCC1C(c1ccc(Cl)cc1)N2 (stereo unspecified)
active: all assays above
